Where two headings read alike, the source gives them in different places.
Legend:
[1] = test system: Mycoplasma gallisepticum (MG) S6; test: In vitro sensitivity test (liquid dilution method); format: cell-based; conditions: 37°C, 7 days
Method: (§1) Survey of the sensitivity of the compound (I) to various strains of microorganisms was performed by a liquid dilution method […] an agar dilution method, in which the bacteria used were of animal origin and included the following strains (15 strains out of 11 bacteria): Chicken-origin strain: Mycoplasma gallisepticum (MG), Mycoplasma synoviae (MS), Hemophilus paragallinarum (H.pg) and Escherichia coli (E.coli); Pig-origin strain: Mycoplasma hyopneumoniae (Mh), Hemophilus pleuropneumonia (H.pp) and Bordetella bronchiseptica (B.br); Fish-origin strain: Pasteurella piscicida (P.pis) and Streptococcus sp (Str.sp); others: Escherichia coli (E. coli), Salmonella typhimurium (S.typhi) and Staphylococcus aureus (S.au).
(§2) Of these bacteria, the strains belonging to MG, MS and Mh were cultured at 37°C for 7 days by a liquid dilution method, of which the culture medium comprised: 12 % horse-serum added "PPLO" (agar manufactured by Difco) medium for MG; 12 % pig-serum, 0.01 % βNAD (nicotinamide adenine dinucleotide) added Frey medium for MS; 0.5 % lactoalbumin added Hank's solution, 10 % horse-serum, 0.5 % yeast extract (25 %) for Mh, and the agar dilution method was applied to the strains belonging to H.pg, H.pp, S.typhi, E.coli, S.au and B.br. Specifically, the H.pg strain was cultured in a 5 % chicken-serum added chicken bouillon medium and the H.pp strain was cultured in a heart infusion agar added with 10 % sheep defibered blood and 0.05 % βNAD. In case of the H.pg and P.pp strains, observation was made after cultivation at 37°C for 20 hours under 10 % CO₂. Mueller Hinton agar (Difco) was used for the strains belonging to S.typhi, E.coli, S.au and B.br, and observation was made after cultivation at 37°C for 20 to 24 hours. P.pis and Str.sp, both being of fish-origin, were respectively cultured at 25°C for 40 to 48 hours in a 1.5 % NaCl added heart infusion agar and in a sensitive disk medium.

[2] = test system: Mycoplasma hyopneumoniae (Mh) ST-11; test: In vitro sensitivity test (liquid dilution method); format: cell-based; conditions: 37°C, 7 days
Method: as §1, §2

[3] = test system: Escherichia coli (E.coli) JC-2; test: In vitro sensitivity test (agar dilution method); format: cell-based; conditions: 37°C, 20 to 24 hours
Method: as §1, §2

[4] = test system: Hemophilus pleuropneumonia (H.pp) M-1; test: In vitro sensitivity test (agar dilution method); format: cell-based; conditions: 37°C, 20 hours, 10 % CO₂
Method: as §1, §2

[5] = test system: Salmonella typhimurium (S.typhi) 13311; test: In vitro sensitivity test (agar dilution method); format: cell-based; conditions: 37°C, 20 to 24 hours
Method: as §1, §2

[6] = test system: Staphylococcus aureus (S.au) 209P; test: In vitro sensitivity test (agar dilution method); format: cell-based; conditions: 37°C, 20 to 24 hours
Method: as §1, §2

[7] = test system: Pasteurella piscicida (P.pis) No. 2; test: In vitro sensitivity test; format: cell-based; conditions: 25°C, 40 to 48 hours
Method: as §1, §2

[8] = test system: Streptococcus sp (Str.sp) SNO6119; test: In vitro sensitivity test; format: cell-based; conditions: 25°C, 40 to 48 hours
Method: as §1, §2

[9] = test system: TS-resistant strain of MG; format: in vivo, chicken; conditions: for Number of infected fowl/Number of fowl tested / Infectious index Left air sack + / Infectious index Left air sack ++ / Infectious index Left air sack +++ / Infectious index Left air sack - / Infectious index Right air sack + / Infectious index Right air sack ++ / Infectious index Right air sack +++ / Infectious index Right air sack - / Number of fowl having air sack lesions: 9-days chicken; for Number of infected fowl/Number of fowl tested: 3.5 x 10³ CFU/fowl; for antimicrobial activity compared with ERFX: in vivo, po; for Infectious index Left air sack + / Infectious index Left air sack ++ / Infectious index Left air sack +++ / Infectious index Left air sack - / Infectious index Right air sack + / Infectious index Right air sack ++ / Infectious index Right air sack +++ / Infectious index Right air sack -: count of fowl
[10] = test system: TS-resistant MG; test: Experimental MG infection to chicken, through bait; format: in vivo; conditions: 9-days chicken, 6.6 x 10³ CFU/fowl, dissection 6th day after inoculation
[11] = test system: Bordetella bronchiseptica (B.br) ABU-1; test: In vitro sensitivity test (agar dilution method); format: cell-based; conditions: 37°C, 20 to 24 hours
Method: as §1, §2

[12] = test system: Escherichia coli (E.coli) E-17, chicken-origin strain isolated from the field; test: In vitro sensitivity test (agar dilution method); format: cell-based; conditions: 37°C, 20 to 24 hours
Method: as §1, §2

[13] = test system: Hemophilus paragallinarum (H.pg) 221; test: In vitro sensitivity test (agar dilution method); format: cell-based; conditions: agar dilution, 37°C, 20 hours, 10 % CO₂
Method: as §1, §2

[14] = test system: Hemophilus paragallinarum (H.pg) S-1; test: In vitro sensitivity test (agar dilution method); format: cell-based; conditions: agar dilution, 37°C, 20 hours, 10 % CO₂
Method: as §1, §2

[15] = oral 6.25 mg/kg, 1.7 x 10³ CFU/fowl
[16] = oral 12.5 mg/kg, 1.7 x 10³ CFU/fowl
[17] = oral 25.0 mg/kg, 1.7 x 10³ CFU/fowl
[18] = oral 1.56 mg/kg, 2.2 x 10³ CFU/fowl
[19] = oral 6.25 mg/kg, 2.2 x 10³ CFU/fowl
[20] = oral 12.5 mg/kg, 2.2 x 10³ CFU/fowl
[21] = oral 25.0 mg/kg, 2.2 x 10³ CFU/fowl

Structure (SMILES): CCn1cc(C(=O)O)c(=O)c2cc(F)c(N3C[C@H]4CCC[C@@]4(CNC)C3)c(F)c21.Cl (relative stereo) [I-19, 7-[(1R*,5S*)-1-methylaminomethyl-3-azabicyclo[3.3.0]octan-3-yl]-1-ethyl-6,8-difluoro-1,4-dihydro-4-oxo-3-quinolinecarboxylic acid hydrochloride]
- In vitro Sensitivity Test MG S6 [1]: 0.00625 µg/mL
- In vitro Sensitivity Test Mh ST-11 [2]: 0.39 µg/mL
- In vitro Sensitivity Test E.coli JC-2 [3]: 0.39 µg/mL
- In vitro Sensitivity Test H.pp M-1 [4]: 0.78 µg/mL
- In vitro Sensitivity Test S.typhi 13311 [5]: 0.78 µg/mL
- In vitro Sensitivity Test S.au 209P [6]: 0.05 µg/mL
- In vitro Sensitivity Test P.pis No. 2 [7]: 1.56 µg/mL
- In vitro Sensitivity Test Str.sp SNO6119 [8]: 1.56 µg/mL
- Number of infected fowl/Number of fowl tested ([9]; oral 1.56 mg/kg): 3/5
- Number of infected fowl/Number of fowl tested ([9]; oral 3.13 mg/kg): 3/5
- Number of infected fowl/Number of fowl tested ([9]; oral 6.25 mg/kg): 1/5
- Number of infected fowl/Number of fowl tested ([10]; bait 31.3 ppm/Day): 1/7
- Number of infected fowl/Number of fowl tested ([10]; bait 62.5 ppm/Day): 0/7
- Number of infected fowl/Number of fowl tested ([10]; bait 125 ppm/Day): 0/7

Structure (SMILES): Cl.N[C@H]1CC[C@H]2CN(c3c(F)cc4c(=O)c(C(=O)O)cn(C5CC5)c4c3F)C[C@H]21 (relative stereo) [I-12]
- In vitro Sensitivity Test MG S6 [1]: 0.00313 µg/mL
- In vitro Sensitivity Test Mh ST-11 [2]: <0.00625 µg/mL
- In vitro Sensitivity Test B.br ABU-1 [11]: 0.39 µg/mL
- In vitro Sensitivity Test E.coli JC-2 [3]: 0.1 µg/mL
- In vitro Sensitivity Test H.pp M-1 [4]: 0.2 µg/mL
- In vitro Sensitivity Test S.typhi 13311 [5]: 0.1 µg/mL
- In vitro Sensitivity Test S.au 209P [6]: 0.1 µg/mL
- In vitro Sensitivity Test P.pis No. 2 [7]: 0.39 µg/mL
- In vitro Sensitivity Test Str.sp SNO6119 [8]: 0.78 µg/mL
- antimicrobial activity compared with ERFX [9]: two times more effective than ERFX
- complete inihibition of the lesions in air sac at a concentration of ([9]; oral administration, MG-infected chicken): about 3.13 mg/kg

Structure (SMILES): O=C(O)c1cn(C2CC2)c2c(F)c(N3CC4CCCC(=O)C4C3)c(F)cc2c1=O (stereo not shown) [I-4]
- In vitro Sensitivity Test MG S6 [1]: 0.05 µg/mL
- In vitro Sensitivity Test Mh ST-11 [2]: ≦0.025 µg/ml
- In vitro Sensitivity Test E.coli JC-2 [3]: 0.2 µg/mL
- In vitro Sensitivity Test H.pp M-1 [4]: 0.2 µg/mL
- In vitro Sensitivity Test S.typhi 13311 [5]: 0.39 µg/mL
- In vitro Sensitivity Test S.au 209P [6]: 0.05 µg/mL
- In vitro Sensitivity Test P.pis No. 2 [7]: 6.25 µg/mL
- In vitro Sensitivity Test Str.sp SNO6119 [8]: 0.39 µg/mL
- Infectious index Left air sack + [9, 15]: 1
- Infectious index Left air sack ++ [9, 15]: 0
- Infectious index Left air sack +++ [9, 15]: 0
- Infectious index Left air sack - [9, 15]: 3
- Infectious index Right air sack + [9, 15]: 1
- Infectious index Right air sack ++ [9, 15]: 1
- Infectious index Right air sack +++ [9, 15]: 0
- Infectious index Right air sack - [9, 15]: 2
- Infectious index Left air sack + [9, 16]: 0
- Infectious index Left air sack ++ [9, 16]: 0
- Infectious index Left air sack +++ [9, 16]: 0
- Infectious index Left air sack - [9, 16]: 5
- Infectious index Right air sack + [9, 16]: 0
- Infectious index Right air sack ++ [9, 16]: 0
- Infectious index Right air sack +++ [9, 16]: 0
- Infectious index Right air sack - [9, 16]: 5
- Infectious index Left air sack + [9, 17]: 0
- Infectious index Left air sack ++ [9, 17]: 0
- Infectious index Left air sack +++ [9, 17]: 0
- Infectious index Left air sack - [9, 17]: 5
- Infectious index Right air sack + [9, 17]: 0
- Infectious index Right air sack ++ [9, 17]: 0
- Infectious index Right air sack +++ [9, 17]: 0
- Infectious index Right air sack - [9, 17]: 5
- Number of fowl having air sack lesions [9, 15]: 2
- Number of fowl having air sack lesions [9, 16]: 0
- Number of fowl having air sack lesions [9, 17]: 0

Structure (SMILES): CNC[C@@]12CCC[C@@H]1CN(c1c(Cl)cc3c(=O)c(C(=O)O)cn(C4CC4)c3c1Cl)C2.Cl (relative stereo) [I-10, 7-[(1R*,5S*)-1-methylaminomethyl-3-azabicyclo[3.3.0]octan-3-yl]-1-cyclopropyl-6,8-dichloro-1,4-dihydro-4-oxo-3-quinoline carboxylic acid hydrochloride]
- In vitro Sensitivity Test MG S6 [1]: 0.00625 µg/mL
- In vitro Sensitivity Test Mh ST-11 [2]: 0.05 µg/mL
- In vitro Sensitivity Test B.br ABU-1 [11]: 12.5 µg/mL
- In vitro Sensitivity Test E.coli E-17 [12]: 0.39 µg/ml
- In vitro Sensitivity Test E.coli JC-2 [3]: 0.78 µg/mL
- In vitro Sensitivity Test H.pg 221 [13]: 0.78 µg/mL
- In vitro Sensitivity Test H.pg S-1 [14]: 0.39 µg/mL
- In vitro Sensitivity Test H.pp M-1 [4]: 0.78 µg/mL
- In vitro Sensitivity Test S.typhi 13311 [5]: 0.78 µg/mL
- In vitro Sensitivity Test S.au 209P [6]: 0.025 to 0.05 µg/mL
- In vitro Sensitivity Test P.pis No. 2 [7]: 1.56 µg/mL
- In vitro Sensitivity Test Str.sp SNO6119 [8]: 0.78 µg/mL
- Infectious index Left air sack + [9, 18]: 0
- Infectious index Left air sack ++ [9, 18]: 0
- Infectious index Left air sack +++ [9, 18]: 0
- Infectious index Left air sack - [9, 18]: 4
- Infectious index Right air sack + [9, 18]: 2
- Infectious index Right air sack ++ [9, 18]: 0
- Infectious index Right air sack +++ [9, 18]: 1
- Infectious index Right air sack - [9, 18]: 1
- Infectious index Left air sack + [9, 19]: 1
- Infectious index Left air sack ++ [9, 19]: 0
- Infectious index Left air sack +++ [9, 19]: 0
- Infectious index Left air sack - [9, 19]: 4
- Infectious index Right air sack + [9, 19]: 2
- Infectious index Right air sack ++ [9, 19]: 2
- Infectious index Right air sack +++ [9, 19]: 0
- Infectious index Right air sack - [9, 19]: 1
- Infectious index Left air sack + [9, 20]: 0
- Infectious index Left air sack ++ [9, 20]: 0
- Infectious index Left air sack +++ [9, 20]: 0
- Infectious index Left air sack - [9, 20]: 5
- Infectious index Right air sack + [9, 20]: 0
- Infectious index Right air sack ++ [9, 20]: 0
- Infectious index Right air sack +++ [9, 20]: 0
- Infectious index Right air sack - [9, 20]: 5
- Infectious index Left air sack + [9, 21]: 0
- Infectious index Left air sack ++ [9, 21]: 0
- Infectious index Left air sack +++ [9, 21]: 0
- Infectious index Left air sack - [9, 21]: 5
- Infectious index Right air sack + [9, 21]: 0
- Infectious index Right air sack ++ [9, 21]: 0
- Infectious index Right air sack +++ [9, 21]: 0
- Infectious index Right air sack - [9, 21]: 5
- Number of fowl having air sack lesions [9, 18]: 3
- Number of fowl having air sack lesions [9, 19]: 4
- Number of fowl having air sack lesions [9, 20]: 0
- Number of fowl having air sack lesions [9, 21]: 0

Structure (SMILES): CNC[C@@]12CCC[C@@H]1CN(c1c(F)cc3c(=O)c(C(=O)O)cn(C4CC4)c3c1Cl)C2.Cl (relative stereo) [I-11, 7-[(1R*,5S*)-1-methylaminomethyl-3-azabicyclo[3.3.0]octan-3-yl]-1-cyclopropyl-8-chloro-6-fluoro-1,4-dihydro-4-oxo-3-quinolinecarboxylic acid hydrochloride]
- antimicrobial activity compared with ERFX [9]: nearly equal potency to ERFX
